This passage reports inhibition results from patent US20230072683A1, “PYRIDO-PYRIMIDIN DERIVATIVES AND PHARMACEUTICAL COMPOSITION, FOR USE IN PREVENTING OR TREATING PI3 KINASE RELATED DISEASES, COMPRISING SAME AS ACTIVE INGREDIENT” (BORYUNG PHARMACEUTICAL CO., LTD, priority 2019, published 2023).

The target of experiment [1] is PI3K-δ (PI3K(p1108/p857) (h)) (Homo sapiens, UniProt O00329). The experiment in a line: Evaluation of inhibitory activity against PI3K-δ (HTRF kinase assay). The experiment is classed as biochemical. As to conditions: compound concentration 0.01 μM; read-out: EXP_VALUE(% Inhibition) PI3K-δ 0.01 μM. In a few lines: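 HTRF read-out (665/620 nm ratio ×10000) used Eu-labelled anti-GST, GST-tagged GRP1 PH domain and streptavidin-allophycocyanin after EDTA/PIP3 stop.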
Sequence of PI3K-δ (PI3K(p1108/p857) (h)) (O00329 whole entry, the tested form may be a part): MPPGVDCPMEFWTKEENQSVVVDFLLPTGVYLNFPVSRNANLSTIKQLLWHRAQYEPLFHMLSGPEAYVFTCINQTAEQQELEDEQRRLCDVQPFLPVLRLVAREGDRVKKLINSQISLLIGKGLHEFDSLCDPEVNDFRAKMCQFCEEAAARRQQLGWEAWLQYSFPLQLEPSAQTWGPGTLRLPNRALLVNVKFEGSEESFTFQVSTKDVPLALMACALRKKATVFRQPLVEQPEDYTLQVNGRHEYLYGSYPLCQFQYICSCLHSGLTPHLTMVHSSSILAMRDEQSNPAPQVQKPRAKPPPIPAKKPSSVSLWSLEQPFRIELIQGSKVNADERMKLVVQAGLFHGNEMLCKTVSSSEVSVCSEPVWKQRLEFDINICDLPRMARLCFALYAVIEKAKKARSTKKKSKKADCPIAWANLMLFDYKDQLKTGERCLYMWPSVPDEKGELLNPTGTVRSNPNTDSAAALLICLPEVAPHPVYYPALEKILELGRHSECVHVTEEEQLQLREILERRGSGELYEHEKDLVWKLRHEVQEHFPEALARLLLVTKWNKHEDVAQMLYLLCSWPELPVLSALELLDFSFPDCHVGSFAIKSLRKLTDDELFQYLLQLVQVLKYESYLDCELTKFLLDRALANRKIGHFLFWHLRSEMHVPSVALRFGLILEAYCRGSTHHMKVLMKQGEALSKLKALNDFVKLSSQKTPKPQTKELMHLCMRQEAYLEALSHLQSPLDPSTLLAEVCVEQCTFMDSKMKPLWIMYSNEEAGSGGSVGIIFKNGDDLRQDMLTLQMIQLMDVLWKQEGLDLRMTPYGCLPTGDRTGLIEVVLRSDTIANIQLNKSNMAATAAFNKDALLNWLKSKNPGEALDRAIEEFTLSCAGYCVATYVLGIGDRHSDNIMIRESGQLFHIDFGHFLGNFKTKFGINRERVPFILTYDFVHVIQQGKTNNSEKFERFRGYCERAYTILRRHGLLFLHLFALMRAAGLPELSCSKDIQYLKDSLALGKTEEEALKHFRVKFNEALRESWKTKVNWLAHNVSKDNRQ
Sequence of PI3K-δ (PI3K(p1108/p857) (h)) (P27986 whole entry partner, the tested form may be a part): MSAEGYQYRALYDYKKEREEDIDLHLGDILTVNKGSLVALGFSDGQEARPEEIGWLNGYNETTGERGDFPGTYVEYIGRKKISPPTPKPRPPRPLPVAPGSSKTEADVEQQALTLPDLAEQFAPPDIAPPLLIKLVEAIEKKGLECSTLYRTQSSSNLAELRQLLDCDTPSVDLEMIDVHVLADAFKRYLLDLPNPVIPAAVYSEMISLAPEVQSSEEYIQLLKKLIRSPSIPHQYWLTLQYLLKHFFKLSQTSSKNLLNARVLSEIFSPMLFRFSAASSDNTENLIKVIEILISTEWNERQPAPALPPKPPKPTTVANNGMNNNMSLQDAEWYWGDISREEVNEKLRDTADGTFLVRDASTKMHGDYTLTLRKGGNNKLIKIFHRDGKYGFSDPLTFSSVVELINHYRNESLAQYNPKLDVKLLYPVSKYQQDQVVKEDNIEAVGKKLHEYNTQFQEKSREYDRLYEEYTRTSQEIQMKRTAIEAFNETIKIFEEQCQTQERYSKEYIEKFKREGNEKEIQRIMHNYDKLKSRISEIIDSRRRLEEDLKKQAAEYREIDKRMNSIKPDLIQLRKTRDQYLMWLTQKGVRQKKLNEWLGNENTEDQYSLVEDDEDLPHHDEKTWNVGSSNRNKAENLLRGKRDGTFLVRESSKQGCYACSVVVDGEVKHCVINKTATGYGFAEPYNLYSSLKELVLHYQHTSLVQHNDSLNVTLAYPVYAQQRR

Experiment [2] addresses DNA-PK(h) (Homo sapiens, UniProt P78527). Nature of the experiment: Evaluation of inhibitory activity against DNA-PK (HTRF kinase assay, GST-cMyc-p53 substrate). It is filed as biochemical. The settings on record: compound concentration 0.01 μM; read-out: EXP_VALUE(% Inhibition) DNA-PK(h) 0.01 μM. In a few lines: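 Human DNA-PK with 50 μM GST-cMyc-p53 substrate; reaction started with Mg/ATP, run 30 min at room temperature, stopped with EDTA. Phospho-Ser15 p53 detected by HTRF (Eu anti-phospho-Ser15, d2 anti-GST), signal = 10000×(Em 665/Em 620).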

For `COc1ccc(-c2cccc3c(Cl)c([C@H](C)Nc4ncnc5[nH]ccc(=O)c45)n(-c4ccccc4)c(=O)c23)cc1F` [Example 191, (S)-4-((1-(4-chloro-8-(3-fluoro-4-methoxyphenyl)-1-oxo-2-phenyl-1,2-dihydroisoquinolin-3-yl)ethyl)amino)pyrido[2,3-d]pyrimidin-5(8H)-one], the inhibition at 0.01 µM in experiment [1] is 85%; in experiment [2], 102%.

On to `C[C@H](Nc1ncnc2[nH]ccc(=O)c12)c1c(Cl)c2cccc(-c3cc(F)c4c(c3)NCCO4)c2c(=O)n1-c1ccccc1` [Example 192, (S)-4-((1-(4-chloro-8-(8-fluoro-3,4-dihydro-2H-benzo[b] [1,4]oxazin-6-yl)-1-oxo-2-phenyl-1,2-dihydroisoquinolin-3-yl)ethyl)amino)pyrido[2,3-d]pyrimidin-5(8H)-one], for which the inhibition at 0.01 µM was 72% in experiment [1] and 25% in experiment [2].

With `CC(C)NC(=O)c1ccc(-c2cccc3c(Cl)c([C@H](C)Nc4ncnc5[nH]ccc(=O)c45)n(-c4ccccc4)c(=O)c23)cc1` [Example 193, (S)-4-(4-chloro-1-oxo-3-(1-((5-oxo-5,8-dihydropyrido[2,3-d]pyrimidin-4-yl)amino)ethyl)-2-phenyl-1,2-dihydroisoquinolin-8-yl)-N-isopropylbenzamide], the values for the inhibition at 0.01 µM in experiment [1] and in experiment [2] were 72% and 71%, respectively.

For `C[C@H](Nc1ncnc2[nH]ccc(=O)c12)c1c(Cl)c2cccc(-c3ccc(N4CCCCC4)nc3)c2c(=O)n1-c1ccccc1` [Example 194, (S)-4-((1-(4-chloro-1-oxo-2-phenyl-8-(6-(piperidin-1-yl)pyridin-3-yl)-1,2-dihydroisoquinolin-3-yl)ethyl)amino)pyrido[2,3-d]pyrimidin-5(8H)-one], the inhibition at 0.01 µM is 59% in experiment [1] and 31% in experiment [2].

For `C[C@H](Nc1ncnc2[nH]ccc(=O)c12)c1c(Cl)c2cccc(-c3ccnc(F)c3)c2c(=O)n1-c1ccccc1` [Example 195, (S)-4-((1-(4-chloro-8-(2-fluoropyridin-4-yl)-1-oxo-2-phenyl-1,2-dihydroisoquinolin-3-yl)ethyl)amino)pyrido[2,3-d]pyrimidin-5(8H)-one], the inhibition at 0.01 µM in experiment [1] stood at 118%; in experiment [2] it was 101%.

Consider `CNC(=O)c1ccc(-c2cccc3c(Cl)c([C@H](C)Nc4ncnc5[nH]ccc(=O)c45)n(-c4ccccc4)c(=O)c23)cn1` [Example 196, (S)-5-(4-chloro-1-oxo-3-(1-((5-oxo-5,8-dihydropyrido[2,3-d]pyrimidin-4-yl)amino)ethyl)-2-phenyl-1,2-dihydroisoquinolin-8-yl)-N-methylpicolinamide], for which the inhibition at 0.01 µM in experiment [1] came to 127%; in experiment [2], 101%.

As for `COc1ncc(-c2cccc3c(Cl)c([C@H](C)Nc4ncnc5[nH]ccc(=O)c45)n(-c4ccccc4)c(=O)c23)cc1C` [Example 197, (S)-4-((1-(4-chloro-8-(6-methoxy-5-methylpyridin-3-yl)-1-oxo-2-phenyl-1,2-dihydroisoquinolin-3-yl)ethyl)amino)pyrido[2,3-d]pyrimidin-5(8H)-one], the inhibition at 0.01 µM in experiment [1] was 91%; in experiment [2], 61%.

For `C[C@H](Nc1ncnc2[nH]ccc(=O)c12)c1c(Cl)c2cccc(-c3cnccn3)c2c(=O)n1-c1ccccc1` [Example 198, (S)-4-((1-(4-chloro-1-oxo-2-phenyl-8-(pyrazin-2-yl)-1,2-dihydroisoquinolin-3-yl)ethyl)amino)pyrido[2,3-d]pyrimidin-5(8H)-one], the inhibition at 0.01 µM was 90% in experiment [1] and 63% in experiment [2].

Regarding `CCOc1c(OC)ccc(-c2cccc3c(Cl)c([C@H](C)Nc4ncnc5[nH]ccc(=O)c45)n(-c4ccccc4)c(=O)c23)c1F` [Example 199, (S)-4-((1-(4-chloro-8-(3-ethoxy-2-fluoro-4-methoxyphenyl)-1-oxo-2-phenyl-1,2-dihydroisoquinolin-3-yl)ethyl)amino)pyrido[2,3-d]pyrimidin-5(8H)-one], the inhibition at 0.01 µM in experiment [1] is 35%; in experiment [2] it was 60%.
